Results taken from BindingDB's records for doi:10.1074/jbc.M113.496463 (National Institutes of Health, National Institutes of …, 2013).
Several values for one entry are separate records, joined by “and”; a condition that tells them apart may be missing. Identical values can stand only once.

How the values were obtained:
[1] = biological target: T1, Fanconi anemia group J protein (Homo sapiens, UniProt Q9BX63); test: Helicase Assays; conditions: pH 8
T1 sequence (Q9BX63 whole entry): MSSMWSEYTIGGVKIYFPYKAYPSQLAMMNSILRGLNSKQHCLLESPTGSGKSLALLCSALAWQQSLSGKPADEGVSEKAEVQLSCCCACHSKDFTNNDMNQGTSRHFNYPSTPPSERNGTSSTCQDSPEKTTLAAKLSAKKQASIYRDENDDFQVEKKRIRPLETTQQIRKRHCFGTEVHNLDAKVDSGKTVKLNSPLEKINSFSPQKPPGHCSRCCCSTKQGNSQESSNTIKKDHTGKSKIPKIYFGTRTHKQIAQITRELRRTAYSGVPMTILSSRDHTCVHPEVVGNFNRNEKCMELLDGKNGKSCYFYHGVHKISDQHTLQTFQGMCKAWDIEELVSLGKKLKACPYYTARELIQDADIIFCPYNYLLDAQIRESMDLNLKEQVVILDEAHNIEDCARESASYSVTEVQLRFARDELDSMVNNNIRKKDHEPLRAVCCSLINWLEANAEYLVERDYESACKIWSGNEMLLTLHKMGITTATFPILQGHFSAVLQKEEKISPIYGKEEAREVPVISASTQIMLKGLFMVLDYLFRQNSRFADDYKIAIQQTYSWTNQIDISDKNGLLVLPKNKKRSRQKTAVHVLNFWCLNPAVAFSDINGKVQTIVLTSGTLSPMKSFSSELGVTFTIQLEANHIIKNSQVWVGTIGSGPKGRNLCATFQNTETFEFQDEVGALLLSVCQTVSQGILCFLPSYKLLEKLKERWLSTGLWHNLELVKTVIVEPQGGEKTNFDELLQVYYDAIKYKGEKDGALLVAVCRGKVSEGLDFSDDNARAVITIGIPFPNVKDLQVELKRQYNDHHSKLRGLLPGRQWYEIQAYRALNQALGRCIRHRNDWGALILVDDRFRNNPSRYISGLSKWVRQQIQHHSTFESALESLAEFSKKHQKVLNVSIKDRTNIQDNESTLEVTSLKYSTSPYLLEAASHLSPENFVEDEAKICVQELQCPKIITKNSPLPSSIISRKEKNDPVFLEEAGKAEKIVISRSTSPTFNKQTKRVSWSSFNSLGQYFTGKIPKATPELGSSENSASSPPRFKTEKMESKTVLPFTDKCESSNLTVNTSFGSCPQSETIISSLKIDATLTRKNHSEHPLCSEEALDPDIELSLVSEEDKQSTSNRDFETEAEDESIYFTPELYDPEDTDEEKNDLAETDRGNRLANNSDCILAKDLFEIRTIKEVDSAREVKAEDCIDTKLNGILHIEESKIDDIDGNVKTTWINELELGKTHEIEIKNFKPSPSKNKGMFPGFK
Experimental: (§1) Standard helicase reaction mixtures (20μl) containing 5 fmol of the indicated TP-G4 or OX-1-G2' DNA substrates or forked duplex DNA substrate (0.25 nM DNA substrate concentration), 1mM ATP, and the indicated concentrations of the specified helicase were as previously described for FANCJ [Wu et al., Mol. Cell. Biol., 28:4116-4128] and DDX11 [Wu et al., J. Biol. Chem., 287:1007-1021]. Helicase reactions for XPD and DinG were performed in buffer that contained 20mM Tris-HCl (pH 8.0), 10mM KCl, 1mM dithiothreitol, 5mM MgCl2, and 100 μg/ml BSA. Reactions were performed at 37 °C for 15 min in the presence of 1 mM ATP, the DNA substrates mentioned above, and the indicated helicase protein concentrations. Forthe unimolecular Poly(A) Zic1-G4 DNA substrate, helicase reactions were performed in reaction buffer containing a 20-fold excess of peptide-nucleic acid complementary oligonucleotide [Giri et al., Nucleic Acids Res., 39:7161-7178]. G4 helicase reactions were terminated by th

[2] = biological target: T2, ATP-dependent DNA helicase DinG (Escherichia coli (strain K12), UniProt P27296); test: Helicase Assays; conditions: pH 8
T2 sequence (P27296 whole entry): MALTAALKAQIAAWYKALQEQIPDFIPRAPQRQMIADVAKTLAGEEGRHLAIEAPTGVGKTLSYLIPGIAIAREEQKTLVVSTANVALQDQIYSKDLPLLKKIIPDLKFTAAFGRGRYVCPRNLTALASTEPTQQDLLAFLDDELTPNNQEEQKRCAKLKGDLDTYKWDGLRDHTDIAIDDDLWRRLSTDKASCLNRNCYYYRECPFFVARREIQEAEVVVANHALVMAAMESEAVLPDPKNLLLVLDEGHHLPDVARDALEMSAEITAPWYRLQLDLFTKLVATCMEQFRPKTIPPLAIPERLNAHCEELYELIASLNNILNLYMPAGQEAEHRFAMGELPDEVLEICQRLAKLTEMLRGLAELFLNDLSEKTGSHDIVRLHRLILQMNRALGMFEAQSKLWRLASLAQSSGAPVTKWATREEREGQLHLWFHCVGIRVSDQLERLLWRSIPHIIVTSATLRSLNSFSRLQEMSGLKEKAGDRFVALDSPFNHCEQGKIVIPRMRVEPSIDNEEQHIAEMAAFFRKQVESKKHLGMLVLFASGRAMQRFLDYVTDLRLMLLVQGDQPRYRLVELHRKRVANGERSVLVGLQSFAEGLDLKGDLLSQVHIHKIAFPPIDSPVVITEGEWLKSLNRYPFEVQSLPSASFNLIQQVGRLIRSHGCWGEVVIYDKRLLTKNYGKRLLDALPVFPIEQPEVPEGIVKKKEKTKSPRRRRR
Experimental: as §1

| SMILES | IC50 [1] | IC50 [2] |
| --- | --- | --- |
| C[n+]1ccc(-c2c3nc(c(-c4cc[n+](C)cc4)c4ccc([nH]4)c(-c4cc[n+](C)cc4)c4nc(c(-c5cc[n+](C)cc5)c5ccc2[nH]5)C=C4)C=C3)cc1 | 2300 nM and 2900 nM and 4900 nM | 1100 nM and 1200 nM |
| C[n+]1cc(NC(=O)c2ccc3ccc4ccc(C(=O)Nc5cc6ccccc6[n+](C)c5)nc4c3n2)cc2ccccc21 |  | 50 nM and 130 nM |
| C[n+]1cccc2cc(NC(=O)c3ccc4ccc5ccc(C(=O)Nc6ccc7c(ccc[n+]7C)c6)nc5c4n3)ccc21 [Phen-DC6] |  | 60 nM and 55 nM |
| Cc1oc2nc1-c1nc(co1)-c1nc(co1)-c1nc(co1)-c1nc(co1)-c1nc(co1)C1=NC(CS1)c1nc-2c(C)o1 (stereo unspecified) [Telomestatin (TMS)] | 2.2 nM and 1.9 nM and 2 nM | 1.5 nM and 1 nM |
